{
  "source": "PubChem BioAssay (NCI)",
  "test_in_all_cases": "growth of human tumour cells (NCI), 48 h",
  "key": {"786-0 renal": {"test_system": "786-0 renal"}, "A498 renal": {"test_system": "A498 renal"}, "A549 NSCLC": {"test_system": "A549 NSCLC"}, "ACHN renal": {"test_system": "ACHN renal"}, "BT-549 breast": {"test_system": "BT-549 breast"}, "CAKI-1 renal": {"test_system": "CAKI-1 renal"}, "CCRF-CEM leukemia": {"test_system": "CCRF-CEM leukemia"}, "COLO 205 colon": {"test_system": "COLO 205 colon"}, "DU-145 prostate": {"test_system": "DU-145 prostate"}, "HCC-2998 colon": {"test_system": "HCC-2998 colon"}, "HCT-116 colon": {"test_system": "HCT-116 colon"}, "HCT-15 colon": {"test_system": "HCT-15 colon"}, "HL-60(TB) leukemia": {"test_system": "HL-60(TB) leukemia"}, "HOP-62 NSCLC": {"test_system": "HOP-62 NSCLC"}, "HOP-92 NSCLC": {"test_system": "HOP-92 NSCLC"}, "HS 578T breast": {"test_system": "HS 578T breast"}, "HT29 colon": {"test_system": "HT29 colon"}, "IGROV1 ovarian": {"test_system": "IGROV1 ovarian"}, "K-562 leukemia": {"test_system": "K-562 leukemia"}, "KM12 colon": {"test_system": "KM12 colon"}, "LOX IMVI melanoma": {"test_system": "LOX IMVI melanoma"}, "M14 melanoma": {"test_system": "M14 melanoma"}, "MALME-3M melanoma": {"test_system": "MALME-3M melanoma"}, "MCF7 breast": {"test_system": "MCF7 breast"}, "MDA-MB-231 breast": {"test_system": "MDA-MB-231 breast"}, "MDA-MB-435": {"test_system": "MDA-MB-435"}, "MOLT-4 leukemia": {"test_system": "MOLT-4 leukemia"}, "NCI-H226 lung": {"test_system": "NCI-H226 lung"}},
  "note": "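Compound exposure: 48 hours, 5 concentrations, 96-well plates. At the GI50, growth is halved. TGI denotes the concentration required for complete inhibition of growth.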",
  "data": [
    {"molecule": "Fc1ccc(Nc2nc3nonc3nc2Nc2ccc(F)cc2)cc1", "values": [
      {"measurement": "GI50", "setting": "786-0 renal", "result": 509, "unit": "nM"},
      {"measurement": "TGI", "setting": "786-0 renal", "result": 8480, "unit": "nM"},
      {"measurement": "GI50", "setting": "A498 renal", "result": 163, "unit": "nM"},
      {"measurement": "TGI", "setting": "A498 renal", "result": 660, "unit": "nM"},
      {"measurement": "GI50", "setting": "A549 NSCLC", "result": 354, "unit": "nM"},
      {"measurement": "TGI", "setting": "A549 NSCLC", "result": 11400, "unit": "nM"},
      {"measurement": "GI50", "setting": "ACHN renal", "result": 399, "unit": "nM"},
      {"measurement": "TGI", "setting": "ACHN renal", "result": 7090, "unit": "nM"},
      {"measurement": "GI50", "setting": "BT-549 breast", "result": 309, "unit": "nM"},
      {"measurement": "TGI", "setting": "BT-549 breast", "result": 2770, "unit": "nM"},
      {"measurement": "GI50", "setting": "CAKI-1 renal", "result": 350, "unit": "nM"},
      {"measurement": "TGI", "setting": "CAKI-1 renal", "result": 10800, "unit": "nM"},
      {"measurement": "GI50", "setting": "CCRF-CEM leukemia", "result": 350, "unit": "nM"},
      {"measurement": "TGI", "setting": "CCRF-CEM leukemia", "result": 10100, "unit": "nM"},
      {"measurement": "GI50", "setting": "COLO 205 colon", "result": 342, "unit": "nM"},
      {"measurement": "TGI", "setting": "COLO 205 colon", "result": 1430, "unit": "nM"},
      {"measurement": "GI50", "setting": "DU-145 prostate", "result": 570, "unit": "nM"},
      {"measurement": "TGI", "setting": "DU-145 prostate", "result": 15000, "unit": "nM"},
      {"measurement": "GI50", "setting": "HCC-2998 colon", "result": 414, "unit": "nM"},
      {"measurement": "TGI", "setting": "HCC-2998 colon", "result": 5490, "unit": "nM"},
      {"measurement": "GI50", "setting": "HCT-116 colon", "result": 322, "unit": "nM"},
      {"measurement": "TGI", "setting": "HCT-116 colon", "result": 11400, "unit": "nM"},
      {"measurement": "GI50", "setting": "HCT-15 colon", "result": 384, "unit": "nM"},
      {"measurement": "TGI", "setting": "HCT-15 colon", "result": 11700, "unit": "nM"},
      {"measurement": "GI50", "setting": "HL-60(TB) leukemia", "result": 342, "unit": "nM"},
      {"measurement": "TGI", "setting": "HL-60(TB) leukemia", "result": 1500, "unit": "nM"},
      {"measurement": "GI50", "setting": "HOP-62 NSCLC", "result": 319, "unit": "nM"},
      {"measurement": "TGI", "setting": "HOP-62 NSCLC", "result": 2130, "unit": "nM"},
      {"measurement": "GI50", "setting": "HOP-92 NSCLC", "result": 168, "unit": "nM"},
      {"measurement": "TGI", "setting": "HOP-92 NSCLC", "result": 629, "unit": "nM"},
      {"measurement": "GI50", "setting": "HS 578T breast", "result": 370, "unit": "nM"},
      {"measurement": "TGI", "setting": "HS 578T breast", "result": 4030, "unit": "nM"},
      {"measurement": "GI50", "setting": "HT29 colon", "result": 482, "unit": "nM"},
      {"measurement": "TGI", "setting": "HT29 colon", "result": 10700, "unit": "nM"},
      {"measurement": "GI50", "setting": "IGROV1 ovarian", "result": 570, "unit": "nM"},
      {"measurement": "TGI", "setting": "IGROV1 ovarian", "result": 13800, "unit": "nM"},
      {"measurement": "GI50", "setting": "K-562 leukemia", "result": 352, "unit": "nM"},
      {"measurement": "TGI", "setting": "K-562 leukemia", "result": 12400, "unit": "nM"},
      {"measurement": "GI50", "setting": "KM12 colon", "result": 395, "unit": "nM"},
      {"measurement": "TGI", "setting": "KM12 colon", "result": 10600, "unit": "nM"},
      {"measurement": "GI50", "setting": "LOX IMVI melanoma", "result": 469, "unit": "nM"},
      {"measurement": "TGI", "setting": "LOX IMVI melanoma", "result": 4290, "unit": "nM"},
      {"measurement": "GI50", "setting": "M14 melanoma", "result": 586, "unit": "nM"},
      {"measurement": "TGI", "setting": "M14 melanoma", "result": 10500, "unit": "nM"},
      {"measurement": "GI50", "setting": "MALME-3M melanoma", "result": 277, "unit": "nM"},
      {"measurement": "TGI", "setting": "MALME-3M melanoma", "result": 1110, "unit": "nM"},
      {"measurement": "GI50", "setting": "MCF7 breast", "result": 567, "unit": "nM"},
      {"measurement": "TGI", "setting": "MCF7 breast", "result": 11200, "unit": "nM"},
      {"measurement": "GI50", "setting": "MDA-MB-231 breast", "result": 493, "unit": "nM"},
      {"measurement": "TGI", "setting": "MDA-MB-231 breast", "result": 4250, "unit": "nM"},
      {"measurement": "GI50", "setting": "MDA-MB-435", "result": 338, "unit": "nM"},
      {"measurement": "TGI", "setting": "MDA-MB-435", "result": 3610, "unit": "nM"},
      {"measurement": "GI50", "setting": "MOLT-4 leukemia", "result": 356, "unit": "nM"},
      {"measurement": "TGI", "setting": "MOLT-4 leukemia", "result": 1650, "unit": "nM"},
      {"measurement": "GI50", "setting": "NCI-H226 lung", "result": 384, "unit": "nM"},
      {"measurement": "TGI", "setting": "NCI-H226 lung", "result": 13900, "unit": "nM"}
    ]}
  ]
}
